Source: US20160237158A1, “Methods and Compositions for Targeting Tumor Microenvironment and for preventing Metastasis” (INSTITUT NATIONAL DE LA SANTÉ ET DA LA RECHERCHE MÉDICALE …, priority 2013, published 2016)

Experiments:
hDF [1] = assay: LIF ELISA of TGFβ1-stimulated hDF culture medium; type: cell-based, human; details: after TGFβ1 stimulation
Experimental: For the quantitative determination of LIF protein levels secreted to the media, we used the human LIF ELISA Kit (#ELH-LIF-001, Raybiotech Inc, Norcross, Ga.) following manufacturer's specifications.
(§1) Cancer Cells were grown to confluence, washed twice with PBS and then incubated in serum-free medium at 37° C. After 48 hours, conditioned medium was collected, centrifugated at 5000 g for 5 minutes to remove cell debris and the supernatant stored at −80° C. For immunobloting analysis, fibroblasts were stimulated with cancer cells conditioned media for 5 min, otherwise stated, and lysed as described in the immunbloting section. To analyse LIF secretion upon TGFβ-1 stimulation, fibroblasts were stimulated with 2 ng/ml TGF beta-1 for 1, 4, 24 or 48 h in serum-free medium and conditioned media was prepared as below for ELISA analysis.

hDF [2] = assay: qRT-PCR of IL6 family cytokine genes in TGFβ1-stimulated hDF; type: cell-based, human; details: one hour after stimulation, relative to control (Veh)
Experimental: RNA was isolated from total cell lysates using RNeasy Mini kit (#217004, Qiagen, Turnberry Ln Valencia, Calif.) according to the manufacturer's instructions. Reverse Transcription was performed using 500 ng cytoplasmic RNA using Superscript II reverse transcriptase (#18064-014, Invitrogen, Carlsbad, Calif.). Real time PCR was performed using Fast SYBR Green Master Mix ([…]; Applied Biosystems, Foster City, Calif.) in duplicates according to the recommendations of the manufacturer on an ABI Prism 7900HT sequence detection system (Applied Biosystems, Foster City, Calif.). Relative expression of the respective gene was determined after normalization to GAPDH and calculated with the following formula: relative expression level=2ddCT

fibroblasts [3] = assay: Fibroblast contractility and pro-invasive activity induced by murine breast carcinoma cell conditioned media; type: cell-based, mouse; design: key: +: induction; −: no induction; details: antibodies 10 μg·ml−1
Experimental: (§2) In this assay, hDF or CAFs were cultured during one week in serum-free medium (with either vehicle or cytokines) or CM before embedding in matrix gel. 5×10^5 fibroblasts were embedded in a 1 ml mixture of collagen I and Matrigel18. After the gel was set at 37° C. for 1 h, 5×10^5 SCC12 were plated on top of the gel in complete media. The next day, the gel was lifted onto individual collagen coated nylon discs resting on metal bridges and fed from underneath with daily changes of complete media (with either vehicle or inhibitors), allowing the epithelial layer to grow at an air-liquid interface.
(§3) After 5 days, cultures were fixed (4% paraformaldehyde+0.25% glutaraldehyde in PBS) and processed for haematoxylin and eosin (H&E) staining by standard methods. Invasion assay was measuring the total area of SCC cells and the area of non-invading SCC cells using imageJ software (http://rsbweb.nih.gov/ij/). The value of invasion index shown is the average 1−(non-invading area/total area) of at least ten fields from three or more independent experiments. Error bars are the standard deviation.
(§4) 2.5×10^4 Fibroblasts were embedded in 100 μl of matrix gel (the Collagen-Matrigel mixture used for organotypic invasion assays) and plated into wells of a 96 well plate^57. After 1 h at 37° C., the matrices were overlaid with 100 μl serum-free medium (with either vehicle, cytokines or inhibitors) or CM. Every 2 days, medium was changed and at day 6 the gels were photographed and the respective diameters of the well and gel were measured using ImageJ. The percentage contraction was calculated using the formula 100*(well diameter−gel diameter)/well diameter.
(§5) Neutralizing antibody against LIF (AB-250-NA, R&D, Minneapolis, Minn.), IL-6 R (AB-227-NA, R&D) or TGF beta-1,2,3 (MAB1835, R&D) were used at 10 μg/ml otherwise stated. Neutralizing antibody were incubated one hour with conditioned media before being used for matrix remodelling assay and fibroblasts stimulation to neutralize the biological activity of selected cytokines.
as §1

hDF [4] = assay: Fibronectin expression in hDF; type: cell-based, human; details: TGFβ1 stimulation
Experimental: Cells were grown on glass coverslips, fixed in 3% paraformaldehyde for 20 min at room temperature, rinsed twice in PBS and in 50 mM NH4Cl for 10 min and permeabilized with 0.5% Triton X-100 for 5 min. Cells were next blocked in PBS containing 1% bovine serum albumin (BSA) for 30 min and incubated with anti-alpha smooth muscle actin (1/400), or anti-fibronectin (1/400) antibodies in blocking buffer overnight at 4° C. After two washes in PBS, cells were incubated in the presence of a secondary antibody conjugated to Alexa 488 (1/400) for 40 min, rinsed twice in PBS, stained with DAPI (2 ug/ml) for 5 min, rinsed in water and the coverslips mounted onto glass slides using mounting media.

hDF and hCAF = assay: Matrix remodelling (collagen gel contraction) assay; type: cell-based, human; details: hLu-CAF and hBr-CAF cells, FIG. 6A
Experimental: as §4

STAT3 = STAT3 phosphorylation in fibroblasts (western blot); type: cell-based, human; details: hDF stimulated by TGFβ1
Excerpt: (§6) For western blot analysis, antibodies against STAT3 (#9134), pY705-STAT3 (#9145), SMAD2 (#3122), pSer465/467-SMAD2 (#3108), pY1022/1023-JAK1 (#3331), MLC2 (#3672), pThr18/19-MLC2 (#3674) were purchased from Cell Signaling (Cell Signaling Technology, Beverly Mass.), α-tubulin from sigma (T4026, Sigma, Saint Louis, Mo.); JAK1 from Biolegend (#604402, Biolegend, San Diego, Calif.), GP-130 (#sc-655) and RhoA (#sc-418, Santa Cruz Biotechnology, Santa Cruz, Calif.), and alpha-smooth muscle actin (α-SMA) from Abcam (#Ab5694, Abcam, Cambridge, Mass.). For immunofluorescence staining, antibodies against α-SMA and fibronectin were purchased from Sigma (#A2547 and F3648 respectively, Sigma, Saint Louis, Mo.). Chemical inhibitors used: Pyridone 6 (#42009, Calbiochem, Los Angeles, Calif.) was used at […], SB431542 (#1614, Tocris bioscience, Ellisville, Mo.) at 10 μM, Y27632 (#1254, Tocris bioscience, Ellisville, Mo.) and Actinomycin D (#856258, Sigma, Saint Louis, USA) at 5 μg/ml.
For immunoblotting analysis, cells were lysed on ice in lysis buffer (25 mM Tris (pH 6.8), 2% Sodium dodecyl sulfate (SDS), 5% glycerol, 1% beta-mercaptoethanol, 0.01% bromophenol blue). Equal amounts of protein from each sample were loaded on sodium dodecyl sulfate-polyacrylamide gel electrophoresis, separated, and transferred onto nitrocellulose. The immunoblots were blocked by incubation in 5% bovine serum albumin, 10 mM Tris-HCl (ph7.5), 500 mM NaCl, 0.1% Tween 20 for 30 min at room temperature, probed with specific antibodies and then with secondary antibodies using common classical methods. Immunodetection was performed using chemiluminescent HRP subtrate (#WBKLS0500, Millipore, Billerica, Mass.).

fibroblasts [5] = assay: Fibroblast contractility (collagen lattices) and pro-invasive activity (organotypic invasion) induced by human tumour cell conditioned media; type: cell-based; design: key to Fibroblasts contractile & pro-invasive phenotype: +: induction; −: no induction
Experimental: as §2, §3, §4, §5, §1

SMAD2 = SMAD2 phosphorylation in fibroblasts (western blot); type: cell-based, human; details: hDF stimulated by TGFβ1
Excerpt: as §6
For immunoblotting analysis, cells were lysed on ice in lysis buffer (25 mM Tris (pH 6.8), 2% Sodium dodecyl sulfate (SDS), 5% glycerol, 1% beta-mercaptoethanol, 0.01% bromophenol blue). Equal amounts of protein from each sample were loaded on sodium dodecyl sulfate-polyacrylamide gel electrophoresis, separated, and transferred onto nitrocellulose. […]

[6] = A375M2 CM (h. melanoma), antibodies 10 μg·ml−1, αLIF (50)
[7] = A375P CM (h. melanoma), antibodies 10 μg·ml−1
[8] = A549 CM (h. lung carcinoma), antibodies 10 μg·ml−1
[9] = CAL27 CM (human OSCC), antibodies 10 μg·ml−1, αLIF (50)
[10] = CAL33 CM (human OSCC), antibodies 10 μg·ml−1
[11] = CAL33_LIF CM (h. engineered cell line), antibodies 10 μg·ml−1, αLIF (50)
[12] = CAL33_mock CM (h. engineered cell line), antibodies 10 μg·ml−1
[13] = CAL60 CM (human OSCC), antibodies 10 μg·ml−1
[14] = CAL166 CM (human OSCC), antibodies 10 μg·ml−1
[15] = Detroit562 CM (human OSCC), antibodies 10 μg·ml−1
[16] = LS174 CM (h. colon carcinoma), antibodies 10 μg·ml−1
[17] = MDA-MB-231 CM (breast carcinoma), antibodies 10 μg·ml−1
[18] = MDA-MB-468 CM (breast carcinoma), antibodies 10 μg·ml−1
[19] = Mel501 CM (h. melanoma), antibodies 10 μg·ml−1
[20] = Mel1205 CM (h. melanoma), antibodies 10 μg·ml−1
[21] = SCC12 CM (human OSCC), antibodies 10 μg·ml−1
[22] = SCC13 CM (human OSCC), antibodies 10 μg·ml−1
[23] = SCC25 CM (human OSCC), antibodies 10 μg·ml−1
[24] = Sbcl2 CM (h. melanoma), antibodies 10 μg·ml−1
[25] = WM35 CM (h. melanoma), antibodies 10 μg·ml−1
[26] = WM278 CM (h. melanoma), antibodies 10 μg·ml−1
[27] = WM793 CM (h. melanoma), antibodies 10 μg·ml−1

Row | Compound | STAT3 phosphorylation induced by TGFβ1 (STAT3) | Fibroblasts contractile & pro-invasive phenotype (fibroblasts [5]; [6]) | Fibroblasts contractile & pro-invasive phenotype (fibroblasts [5]; [7]) | Fibroblasts contractile & pro-invasive phenotype (fibroblasts [5]; [8]) | Fibroblasts contractile & pro-invasive phenotype (fibroblasts [5]; [9]) | Fibroblasts contractile & pro-invasive phenotype (fibroblasts [5]; [10]) | Fibroblasts contractile & pro-invasive phenotype (fibroblasts [5]; [11]) | Fibroblasts contractile & pro-invasive phenotype (fibroblasts [5]; [12]) | Fibroblasts contractile & pro-invasive phenotype (fibroblasts [5]; [13]) | Fibroblasts contractile & pro-invasive phenotype (fibroblasts [5]; [14]) | Fibroblasts contractile & pro-invasive phenotype (fibroblasts [5]; [15]) | Fibroblasts contractile & pro-invasive phenotype (fibroblasts [5]; [16]) | Fibroblasts contractile & pro-invasive phenotype (fibroblasts [5]; [17]) | Fibroblasts contractile & pro-invasive phenotype (fibroblasts [5]; [18]) | Fibroblasts contractile & pro-invasive phenotype (fibroblasts [5]; [19]) | Fibroblasts contractile & pro-invasive phenotype (fibroblasts [5]; [20]) | Fibroblasts contractile & pro-invasive phenotype (fibroblasts [5]; [21]) | Fibroblasts contractile & pro-invasive phenotype (fibroblasts [5]; [22]) | Fibroblasts contractile & pro-invasive phenotype (fibroblasts [5]; [23]) | Fibroblasts contractile & pro-invasive phenotype (fibroblasts [5]; [24]) | also measured
1 | TGFβ1: TGF beta-1 cytokine (#100-21, Peprotech), used at 2 ng·ml-1 |  |  |  |  |  |  |  |  |  |  |  |  |  |  |  |  |  |  |  |  | LIF in hDF cell culture medium, 24 h peak (hDF [1]): 200 pg/mL; increase of IL6 mRNA steady state levels (hDF [2]): 5 fold; increase of LIF mRNA steady state levels (hDF [2]): 100 fold
2 | CC(C)(C)c1nc2c3cc[nH]c(=O)c3c3cc(F)ccc3c2[nH]1 [P6, Pyridone 6] | blocked | − | − | − | − | − | − | − | − | − | − | − | − | − | − | − | − | − | − | − | Fibroblasts contractile & pro-invasive phenotype (fibroblasts [3]; 4T1 CM (murine breast carcinoma)): −; Fibroblasts contractile & pro-invasive phenotype (fibroblasts [3]; 4T07 CM (murine breast carcinoma)): −; Fibroblasts contractile & pro-invasive phenotype (fibroblasts [3]; 67NR CM (murine breast carcinoma)): −; Fibroblasts contractile & pro-invasive phenotype (fibroblasts [3]; 410.4 CM (murine breast carcinoma)): −; fibronectin expression pattern (hDF [4]): slightly reduced; pro-invasive potential (matrix remodelling) of hCAF (hDF and hCAF): required JAK signalling to sustain their pro-invasive potential; Fibroblasts contractile & pro-invasive phenotype (fibroblasts [5]; [25]): −; Fibroblasts contractile & pro-invasive phenotype (fibroblasts [5]; [26]): −; Fibroblasts contractile & pro-invasive phenotype (fibroblasts [5]; [27]): −; Fibroblasts contractile & pro-invasive phenotype (fibroblasts [5]; hPK CM, antibodies 10 μg·ml−1): −
3 | C[C@@H](N)[C@H]1CC[C@H](C(=O)Nc2ccncc2)CC1 [Y27632] |  |  |  |  |  |  |  |  |  |  |  |  |  |  |  |  |  |  |  |  | pro-invasive fibroblast conversion induced by CAL33-LIF CM (fibroblasts [5]; CAL33-LIF CM): blocked; action of SCC12 and SCC13 CM (pro-invasive fibroblast activation) (fibroblasts [5]; SCC12 and SCC13 CM): completely abrogated
4 | siRNA GP130-IL6ST: siRNA targeting GP130-IL6ST (SEQ ID NO: 5 and 6), purchased from Dharmacon (chain 1 CUAAUUACAUUGUCUGGAA; chain 2 CUAAGGAGCAAUAUACUAU; listed as RNA, chemistry not given here) | hampered |  |  |  |  |  |  |  |  |  |  |  |  |  |  |  |  |  |  |  | SMAD2 activation by TGFβ1 (SMAD2): without affecting
5 | NC(=O)c1ccc(-c2nc(-c3ccc4c(c3)OCO4)c(-c3ccccn3)[nH]2)cc1 [SB431542] |  | + | + | + | + | − | + | − | + | + | + | + | + | + | − | + | + | + | + | − | Fibroblasts contractile & pro-invasive phenotype (fibroblasts [5]; [25]): +; Fibroblasts contractile & pro-invasive phenotype (fibroblasts [5]; [26]): +; Fibroblasts contractile & pro-invasive phenotype (fibroblasts [5]; [27]): +; Fibroblasts contractile & pro-invasive phenotype (fibroblasts [5]; hPK CM, antibodies 10 μg·ml−1): −
